System: 282377-053-R-J1-PDC complex spheroid viability
Test: Anticancer human tumor 282377-053-R-J1-PDC patient-derived colon adenocarcinoma cell line growth inhibition [POLQ]
Settings: for IC50: curve of first compound; for viability, T/C: stronger effect = lower value
Procedure, shortened: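 PDC + HUVEC + MSC complex spheroids; POLQ inhibitors ± partner drugs; top conc. at/near clinical Cmax, else 10 microM (SN-38 1 microM), half-log dilutions; 37 degrees C, 5% CO2.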

[1] = second compound 0.0316 µM, first compound 0.0316 µM
[2] = second compound 0.0316 µM, first compound 0.1 µM
[3] = second compound 0.0316 µM, first compound 0.316 µM
[4] = second compound 0.0316 µM, first compound 1 µM
[5] = second compound 0.0316 µM, first compound 3.16 µM
[6] = second compound 0.0316 µM, first compound 10 µM
[7] = second compound 0.1 µM, first compound 0.0316 µM
[8] = second compound 0.1 µM, first compound 0.1 µM
[9] = second compound 0.1 µM, first compound 0.316 µM
[10] = second compound 0.1 µM, first compound 1 µM
[11] = second compound 0.1 µM, first compound 3.16 µM
[12] = second compound 0.1 µM, first compound 10 µM
[13] = second compound 0.316 µM, first compound 0.0316 µM
[14] = second compound 0.316 µM, first compound 0.1 µM
[15] = second compound 0.316 µM, first compound 0.316 µM
[16] = second compound 0.316 µM, first compound 1 µM
[17] = second compound 0.316 µM, first compound 3.16 µM
[18] = second compound 0.316 µM, first compound 10 µM
[19] = second compound 1 µM, first compound 0.0316 µM
[20] = second compound 1 µM, first compound 0.1 µM
[21] = second compound 1 µM, first compound 0.316 µM
[22] = second compound 1 µM, first compound 1 µM
[23] = second compound 1 µM, first compound 3.16 µM
[24] = second compound 1 µM, first compound 10 µM
[25] = second compound 3.16 µM, first compound 0.0316 µM
[26] = second compound 3.16 µM, first compound 0.1 µM
[27] = second compound 3.16 µM, first compound 0.316 µM
[28] = second compound 3.16 µM, first compound 1 µM
[29] = second compound 3.16 µM, first compound 3.16 µM
[30] = second compound 3.16 µM, first compound 10 µM
[31] = second compound 10 µM, first compound 0.0316 µM
[32] = second compound 10 µM, first compound 0.1 µM
[33] = second compound 10 µM, first compound 0.316 µM
[34] = second compound 10 µM, first compound 1 µM
[35] = second compound 10 µM, first compound 3.16 µM
[36] = second compound 10 µM, first compound 10 µM
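Also: spheroids exposed to compounds for seven days.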
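For viability, T/C in this document: 100% = DMSO vehicle control viability.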

CCCS(=O)(=O)Nc1ccc(F)c(C(=O)c2c[nH]c3ncc(-c4ccc(Cl)cc4)cc23)c1F + Nc1ccc(C#CCN(C(=O)Cc2ncc(C(F)(F)F)cc2C(F)(F)F)c2ccc(F)cc2)nn1
IC50 (second compound 0.0316 µM): > 10 µM | IC50 (second compound 0.1 µM): > 10 µM | IC50 (second compound 0.316 µM): > 10 µM | IC50 (second compound 1 µM): > 10 µM | IC50 (second compound 3.16 µM): > 10 µM | IC50 (second compound 10 µM): > 10 µM | viability, T/C [1]: 94.3% | viability, T/C [2]: 77% | viability, T/C [3]: 71.1% | viability, T/C [4]: 57.9% | viability, T/C [5]: 60.4% | viability, T/C [6]: 61.9% | viability, T/C [7]: 105% | viability, T/C [8]: 80.2% | viability, T/C [9]: 77% | viability, T/C [10]: 60.5% | viability, T/C [11]: 77.2% | viability, T/C [12]: 80.7% | viability, T/C [13]: 81.5% | viability, T/C [14]: 81% | viability, T/C [15]: 73% | viability, T/C [16]: 70.9% | viability, T/C [17]: 66.2% | viability, T/C [18]: 74.1% | viability, T/C [19]: 99.8% | viability, T/C [20]: 93.9% | viability, T/C [21]: 68.9% | viability, T/C [22]: 62.4% | viability, T/C [23]: 59.1% | viability, T/C [24]: 60.1% | viability, T/C [25]: 120% | viability, T/C [26]: 90% | viability, T/C [27]: 69.5% | viability, T/C [28]: 78.8% | viability, T/C [29]: 63.4% | viability, T/C [30]: 70.4% | viability, T/C [31]: 107% | viability, T/C [32]: 97.6% | viability, T/C [33]: 80.8% | viability, T/C [34]: 71.9% | viability, T/C [35]: 63.9% | viability, T/C [36]: 65.3%

CNCc1ccc(-c2[nH]c3cc(F)cc4c3c2CCNC4=O)cc1 + Nc1ccc(C#CCN(C(=O)Cc2ncc(C(F)(F)F)cc2C(F)(F)F)c2ccc(F)cc2)nn1
IC50 (second compound 0.0316 µM): > 10 µM | IC50 (second compound 0.1 µM): > 10 µM | IC50 (second compound 0.316 µM): > 10 µM | IC50 (second compound 1 µM): > 10 µM | IC50 (second compound 3.16 µM): > 10 µM | IC50 (second compound 10 µM): > 10 µM | viability, T/C [1]: 105% | viability, T/C [2]: 88.6% | viability, T/C [3]: 90% | viability, T/C [4]: 104% | viability, T/C [5]: 108% | viability, T/C [6]: 112% | viability, T/C [7]: 119% | viability, T/C [8]: 117% | viability, T/C [9]: 104% | viability, T/C [10]: 94.6% | viability, T/C [11]: 97.4% | viability, T/C [12]: 112% | viability, T/C [13]: 95.7% | viability, T/C [14]: 86.2% | viability, T/C [15]: 89.8% | viability, T/C [16]: 108% | viability, T/C [17]: 92% | viability, T/C [18]: 108% | viability, T/C [19]: 95% | viability, T/C [20]: 103% | viability, T/C [21]: 100% | viability, T/C [22]: 90.8% | viability, T/C [23]: 115% | viability, T/C [24]: 101% | viability, T/C [25]: 109% | viability, T/C [26]: 98.3% | viability, T/C [27]: 127% | viability, T/C [28]: 92.4% | viability, T/C [29]: 118% | viability, T/C [30]: 139% | viability, T/C [31]: 113% | viability, T/C [32]: 105% | viability, T/C [33]: 126% | viability, T/C [34]: 121% | viability, T/C [35]: 113% | viability, T/C [36]: 145%

COc1cccc(OCCCN)c1-c1cc(Nc2cnc(C#N)cn2)n[nH]1 + Nc1ccc(C#CCN(C(=O)Cc2ncc(C(F)(F)F)cc2C(F)(F)F)c2ccc(F)cc2)nn1
IC50 (second compound 0.0316 µM): 0.37 µM | IC50 (second compound 0.1 µM): 0.285 µM | IC50 (second compound 0.316 µM): 0.298 µM | IC50 (second compound 1 µM): 0.577 µM | IC50 (second compound 3.16 µM): 0.242 µM | IC50 (second compound 10 µM): 0.212 µM | viability, T/C (second compound 0.0316 µM, first compound 0.00316 µM): 128% | viability, T/C (second compound 0.0316 µM, first compound 0.01 µM): 93.5% | viability, T/C [1]: 85% | viability, T/C [2]: 66.8% | viability, T/C [3]: 55.3% | viability, T/C [4]: 37% | viability, T/C (second compound 0.1 µM, first compound 0.00316 µM): 89.7% | viability, T/C (second compound 0.1 µM, first compound 0.01 µM): 97.3% | viability, T/C [7]: 72.9% | viability, T/C [8]: 62.4% | viability, T/C [9]: 51.8% | viability, T/C [10]: 39% | viability, T/C (second compound 0.316 µM, first compound 0.00316 µM): 94.9% | viability, T/C (second compound 0.316 µM, first compound 0.01 µM): 88.3% | viability, T/C [13]: 73.4% | viability, T/C [14]: 58.1% | viability, T/C [15]: 53.2% | viability, T/C [16]: 38% | viability, T/C (second compound 1 µM, first compound 0.00316 µM): 110% | viability, T/C (second compound 1 µM, first compound 0.01 µM): 90.3% | viability, T/C [19]: 76.4% | viability, T/C [20]: 58.4% | viability, T/C [21]: 53.7% | viability, T/C [22]: 47.5% | viability, T/C (second compound 3.16 µM, first compound 0.00316 µM): 97.6% | viability, T/C (second compound 3.16 µM, first compound 0.01 µM): 93.5% | viability, T/C [25]: 81.3% | viability, T/C [26]: 74.9% | viability, T/C [27]: 39.7% | viability, T/C [28]: 35.6% | viability, T/C (second compound 10 µM, first compound 0.00316 µM): 103% | viability, T/C (second compound 10 µM, first compound 0.01 µM): 96.7% | viability, T/C [31]: 99.9% | viability, T/C [32]: 66.7% | viability, T/C [33]: 43.3% | viability, T/C [34]: 36.3%

O=C(c1cc(Cc2n[nH]c(=O)c3ccccc23)ccc1F)N1CCN(C(=O)C2CC2)CC1 + Nc1ccc(C#CCN(C(=O)Cc2ncc(C(F)(F)F)cc2C(F)(F)F)c2ccc(F)cc2)nn1
IC50 (second compound 0.0316 µM): > 10 µM | IC50 (second compound 0.1 µM): > 10 µM | IC50 (second compound 0.316 µM): > 10 µM | IC50 (second compound 1 µM): > 10 µM | IC50 (second compound 3.16 µM): > 10 µM | IC50 (second compound 10 µM): > 10 µM | viability, T/C [1]: 114% | viability, T/C [2]: 104% | viability, T/C [3]: 101% | viability, T/C [4]: 105% | viability, T/C [5]: 121% | viability, T/C [6]: 105% | viability, T/C [7]: 112% | viability, T/C [8]: 123% | viability, T/C [9]: 98.6% | viability, T/C [10]: 102% | viability, T/C [11]: 117% | viability, T/C [12]: 118% | viability, T/C [13]: 113% | viability, T/C [14]: 97.1% | viability, T/C [15]: 104% | viability, T/C [16]: 95.2% | viability, T/C [17]: 109% | viability, T/C [18]: 94.8% | viability, T/C [19]: 119% | viability, T/C [20]: 103% | viability, T/C [21]: 105% | viability, T/C [22]: 110% | viability, T/C [23]: 112% | viability, T/C [24]: 109% | viability, T/C [25]: 111% | viability, T/C [26]: 109% | viability, T/C [27]: 111% | viability, T/C [28]: 106% | viability, T/C [29]: 118% | viability, T/C [30]: 115% | viability, T/C [31]: 122% | viability, T/C [32]: 106% | viability, T/C [33]: 130% | viability, T/C [34]: 121% | viability, T/C [35]: 129% | viability, T/C [36]: 127%

Source: PubChem BioAssay AID1963852 (Molecular Pharmacology Branch, DTP, NCI, 2024)
